For one test, the target named is IRAK4 (Homo sapiens (Human), UniProt Q9NWZ3). Briefly: IRAK4 Inhibition Assay. Format: biochemical. The conditions noted are these: ATP 500 μM; IRAK4 0.6 nM; 60 min room temperature. Put shortly:
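Phosphorylated and unphosphorylated fluorescent substrate were resolved by microfluidic electrophoresis after termination with 35 mM EDTA. The room-temperature kinase reaction lasted 60 min after IRAK4, substrates and test compound were combined; vehicle-only defined 0% and no-enzyme 100% inhibition.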

The next test concerns the target JAK3 kinase (Homo sapiens (Human), UniProt P52333). Description: JAK3 Homogeneous Time Resolved Fluorescence (HTRF) Assay. The note with it: for IC50: competition binding with fluorescein-labeled ATP competitive probe; for Ratio of JAK3 IC50 to IRAK4 IC50: selectivity for IRAK4 over JAK3. Format: binding. Put shortly: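 IC50 reflects displacement of a fluorescein-labeled ATP-site probe (at its Kd) from 1 nM tagged JAK3, detected via 0.2 nM Tb anti-His or anti-GST antibody. One-hour incubation; 495 and 520 nm emission ratios, background-subtracted, normalized to maximum signal; 11-point percent inhibition, 4-parameter logistic.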
Background: Time-resolved FRET reads energy transfer from a long-lived donor to a nearby acceptor.

Test [1] relates to TLR2 agonist-stimulated IL-6 in human whole blood. Description: IRAK4 Whole Blood Assay. Format: cell-based. The note with it: lipoteichoic acid 10 μg/mL, 5 hours, IL-6 levels. The method, then:
Human whole blood containing the anti-coagulant ACD-A was plated in 384-well plate (25 μL/well) and incubated with compounds for 60 minutes at 37° C. in a 5% CO2 incubator. The blood was stimulated with a TLR2 agonist, 10 μg/mL final concentration of lipoteichoic acid (Invivogen, San Diego, CA) in 25 μL RPMI (Gibco) for 5 hours in a 5% CO2 incubator. At the end of the incubation, plates were centrifuged at 2300 rpm for 5 minutes. Supernatants were harvested and analyzed for IL-6 levels by Flow Cytometry beads assay (BD Biosciences, San Jose, CA).

Sequence of IRAK4 (Q9NWZ3 whole entry, species assumed): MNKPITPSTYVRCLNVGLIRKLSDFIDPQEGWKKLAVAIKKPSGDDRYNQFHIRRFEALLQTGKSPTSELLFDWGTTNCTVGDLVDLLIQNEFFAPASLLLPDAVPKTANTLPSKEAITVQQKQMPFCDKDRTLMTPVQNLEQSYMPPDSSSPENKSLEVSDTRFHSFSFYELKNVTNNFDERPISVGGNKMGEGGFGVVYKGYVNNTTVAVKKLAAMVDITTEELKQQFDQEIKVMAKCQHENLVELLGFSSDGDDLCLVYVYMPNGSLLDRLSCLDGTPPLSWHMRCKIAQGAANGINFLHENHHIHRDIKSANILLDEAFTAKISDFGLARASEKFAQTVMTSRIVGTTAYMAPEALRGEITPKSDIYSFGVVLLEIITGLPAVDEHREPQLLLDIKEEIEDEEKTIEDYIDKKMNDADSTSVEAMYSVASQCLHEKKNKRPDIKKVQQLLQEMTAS
Sequence of JAK3 kinase (P52333 whole entry): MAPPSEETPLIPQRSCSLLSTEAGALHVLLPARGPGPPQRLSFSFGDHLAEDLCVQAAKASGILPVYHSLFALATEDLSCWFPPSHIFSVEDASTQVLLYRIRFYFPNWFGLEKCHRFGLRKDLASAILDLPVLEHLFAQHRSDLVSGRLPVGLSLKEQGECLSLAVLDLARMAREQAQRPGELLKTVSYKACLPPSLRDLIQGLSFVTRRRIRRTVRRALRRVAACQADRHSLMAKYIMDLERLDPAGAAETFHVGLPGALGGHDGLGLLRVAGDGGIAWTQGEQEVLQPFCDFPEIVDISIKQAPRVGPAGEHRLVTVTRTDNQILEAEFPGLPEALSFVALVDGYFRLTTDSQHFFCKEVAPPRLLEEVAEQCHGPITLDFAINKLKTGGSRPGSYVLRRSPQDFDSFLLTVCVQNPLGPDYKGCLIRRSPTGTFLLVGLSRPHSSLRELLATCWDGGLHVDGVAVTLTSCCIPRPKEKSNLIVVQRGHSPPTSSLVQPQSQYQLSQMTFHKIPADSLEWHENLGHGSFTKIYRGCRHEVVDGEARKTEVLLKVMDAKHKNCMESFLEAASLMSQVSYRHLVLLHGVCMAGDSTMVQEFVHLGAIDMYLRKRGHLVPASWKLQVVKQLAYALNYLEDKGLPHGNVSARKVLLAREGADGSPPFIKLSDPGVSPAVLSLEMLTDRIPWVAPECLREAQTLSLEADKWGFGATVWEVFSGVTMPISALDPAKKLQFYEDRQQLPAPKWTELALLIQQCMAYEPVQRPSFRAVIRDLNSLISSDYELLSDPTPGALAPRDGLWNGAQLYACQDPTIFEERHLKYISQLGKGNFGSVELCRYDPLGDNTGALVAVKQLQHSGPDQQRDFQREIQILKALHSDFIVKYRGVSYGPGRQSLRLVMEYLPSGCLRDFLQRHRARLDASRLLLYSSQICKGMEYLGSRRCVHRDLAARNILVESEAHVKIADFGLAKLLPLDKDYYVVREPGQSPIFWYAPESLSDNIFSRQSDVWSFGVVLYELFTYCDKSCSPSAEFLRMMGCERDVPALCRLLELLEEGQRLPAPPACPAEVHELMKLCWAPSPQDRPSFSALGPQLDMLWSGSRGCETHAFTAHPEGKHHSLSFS

Broadly, the IC50 is the concentration needed to halve the response being measured. As for `CC(C)Nc1c(C(=O)NC[C@@H](F)C(C)(C)O)cnn2cc(-c3ccc(N)nc3)cc12` [Example 45, (R)-6-(6-aminopyridin-3-yl)-N-(2-fluoro-3-hydroxy-3-methylbutyl)-4-(isopropylamino) pyrrolo[1,2-b]pyridazine-3-carboxamide], the results for the IC50 (on IRAK4; on JAK3 kinase; in test [1]) were 7.9 nM, around 29 µM and 4680 nM, respectively. For the same compound, on JAK3 kinase, the “Ratio of JAK3 IC50 to IRAK4 IC50” value is around 3671.

Consider `COC(=O)Nc1cc(-c2cc3c(NC(C)C)c(C(=O)NC[C@@H](F)C(C)(C)O)cnn3c2)ccn1` [Example 46, methyl (R)-(4-(3-((2-fluoro-3-hydroxy-3-methylbutyl)carbamoyl)-4-(isopropylamino)pyrrolo[1,2-b]pyridazin-6-yl)pyridin-2-yl) carbamate], for which the half-inhibitory concentration (IC50) on IRAK4 is 9.1 nM; at JAK3 kinase it was above 50 µM; in test [1], 6230 nM. Besides, the “Ratio of JAK3 IC50 to IRAK4 IC50” value at JAK3 kinase was above 5495.

Take `CC(=O)N[C@H]1CC[C@H](NC(=O)c2cnn3cc(-c4cccnc4)cc3c2NC(C)C)CC1` [Example 48, N-((1r,4r)-4-acetamidocyclohexyl)-4-(isopropylamino)-6-(pyridin-3-yl)pyrrolo[1,2-b]pyridazine-3-carboxamide]: the IC50 at IRAK4 is 5.9 nM; at JAK3 kinase it was above 50 µM; in test [1], 850 nM. On JAK3 kinase, the “Ratio of JAK3 IC50 to IRAK4 IC50” value is given as above 8475.

On to `COC(=O)N[C@H]1CC[C@H](NC(=O)c2cnn3cc(-c4cccnc4)cc3c2NC(C)C)CC1` [Example 49, methyl ((1r,4r)-4-(4-(isopropylamino)-6-(pyridin-3-yl)pyrrolo[1,2-b]pyridazine-3-carboxamido)cyclohexyl)carbamate], for which the results for the IC50 (on IRAK4; on JAK3 kinase; in test [1]) were 11.3 nM, above 50 µM and above 10000 nM, respectively. Moreover, the “Ratio of JAK3 IC50 to IRAK4 IC50” value on JAK3 kinase is on record as above 4425.

Turning to `CC(=O)N[C@H]1CC[C@H](NC(=O)c2cnn3cc(-c4ccncc4)cc3c2NC(C)C)CC1` [Example 50, N-((1r,4r)-4-acetamidocyclohexyl)-4-(isopropylamino)-6-(pyridin-4-yl)pyrrolo[1,2-b]pyridazine-3-carboxamide], the IC50 is 2.1 nM on IRAK4, around 39 µM at JAK3 kinase and 900 nM in test [1]. Also, at JAK3 kinase, the “Ratio of JAK3 IC50 to IRAK4 IC50” value is around 18571.

Regarding `COC(=O)N[C@H]1CC[C@H](NC(=O)c2cnn3cc(-c4ccncc4)cc3c2NC(C)C)CC1` [Example 51, methyl ((1r,4r)-4-(4-(isopropylamino)-6-(pyridin-4-yl)pyrrolo[1,2-b]pyridazine-3-carboxamido)cyclohexyl)carbamate], the IC50 is 2.8 nM at IRAK4, above 50 µM on JAK3 kinase and 1760 nM in test [1]. Also, the “Ratio of JAK3 IC50 to IRAK4 IC50” value on JAK3 kinase is on record as above 17857.

For `CC(C)Nc1c(C(=O)N[C@H]2CC[C@H](N)CC2)cnn2cc(-c3ccncc3)cc12` [Example 54, N-((1r,4r)-4-aminocyclohexyl)-4-(isopropylamino)-6-(pyridin-4-yl)pyrrolo[1,2-b]pyridazine-3-carboxamide], the values for the IC50 (on IRAK4; at JAK3 kinase; in test [1]) were 9.1 nM, above 50 µM and 1220 nM, respectively. Further, on JAK3 kinase, the “Ratio of JAK3 IC50 to IRAK4 IC50” value was above 5495.

For `CC(C)Nc1c(C(=O)NC[C@@H](F)C(C)(C)O)cnn2cc(-c3cncs3)cc12` [Example 55, (R)—N-(2-fluoro-3-hydroxy-3-methylbutyl)-4-(isopropylamino)-6-(thiazol-5-yl)pyrrolo[1,2-b]pyridazine-3-carboxamide], the results for the IC50 (at IRAK4; on JAK3 kinase; in test [1]) were 3.9 nM, above 50 µM and above 10000 nM, respectively. For the same compound, at JAK3 kinase, the “Ratio of JAK3 IC50 to IRAK4 IC50” value is listed as above 12821.

Consider `CC(=O)N[C@H]1CC[C@H](NC(=O)c2cnn3cc(-c4ccncc4C)cc3c2NC(C)C)CC1` [Example 56, N-((1r,4r)-4-acetamidocyclohexyl)-4-(isopropylamino)-6-(3-methylpyridin-4-yl)pyrrolo[1,2-b]pyridazine-3-carboxamide], for which the IC50 on IRAK4 is 1.6 nM; at JAK3 kinase, above 50 µM; in test [1], 810 nM. Also, the “Ratio of JAK3 IC50 to IRAK4 IC50” value at JAK3 kinase is listed as above 31250.

On to `CC(C)Nc1c(C(=O)N[C@H]2CC[C@H](O)CC2)cnn2cc(-c3ccncc3)cc12` [Example 60, N-((1r,4r)-4-hydroxycyclohexyl)-4-(isopropylamino)-6-(pyridin-4-yl)pyrrolo[1,2-b]pyridazine-3-carboxamide], for which the values for the IC50 (on IRAK4; at JAK3 kinase; in test [1]) were 9.5 nM, above 50 µM and 3950 nM, respectively. Moreover, at JAK3 kinase, the “Ratio of JAK3 IC50 to IRAK4 IC50” value is recorded as above 5263.

`CC(C)Nc1c(C(=O)NCCC(C)(C)O)cnn2cc(-c3ccncc3)cc12` [Example 62, N-(3-hydroxy-3-methylbutyl)-4-(isopropylamino)-6-(pyridin-4-yl)pyrrolo[1,2-b]pyridazine-3-carboxamide]: the IC50 on IRAK4 was 8.4 nM; on JAK3 kinase, above 50 µM; in test [1], 2010 nM. Also, the “Ratio of JAK3 IC50 to IRAK4 IC50” value on JAK3 kinase was above 5952.

Take `CC(C)Nc1c(C(=O)NCCN2CCOCC2)cnn2cc(-c3ccncc3)cc12` [Example 63, 4-(isopropylamino)-N-(2-morpholinoethyl)-6-(pyridin-4-yl) pyrrolo[1,2-b]pyridazine-3-carboxamide]: the values for the IC50 (at IRAK4; on JAK3 kinase; in test [1]) were 12 nM, above 50 µM and 2000 nM, respectively. For the same compound, the “Ratio of JAK3 IC50 to IRAK4 IC50” value at JAK3 kinase is above 4167.

Take `CC(C)CCNC(=O)c1cnn2cc(-c3ccncc3)cc2c1NC(C)C` [Example 64, N-isopentyl-4-(isopropylamino)-6-(pyridin-4-yl)pyrrolo[1,2-b]pyridazine-3-carboxamide]: the IC50 on IRAK4 was 14 nM; on JAK3 kinase, around 29 µM; in test [1], 8910 nM. The “Ratio of JAK3 IC50 to IRAK4 IC50” value at JAK3 kinase is listed as around 2071.

`CC(=O)N[C@H]1CC[C@H](NC(=O)c2cnn3cc(-c4ccncc4F)cc3c2NC(C)C)CC1` [Example 65, N-((1r,4r)-4-acetamidocyclohexyl)-6-(3-fluoropyridin-4-yl)-4-(isopropylamino)pyrrolo[1,2-b] pyridazine-3-carboxamide]: the results for the IC50 (on IRAK4; on JAK3 kinase; in test [1]) were 1.6 nM, above 50 µM and 360 nM, respectively. Further, on JAK3 kinase, the “Ratio of JAK3 IC50 to IRAK4 IC50” value was above 31250.

For `CC(C)Nc1c(C(=O)N[C@H]2CC[C@H](NC(=O)CO)CC2)cnn2cc(-c3ccncc3F)cc12` [Example 68, 6-(3-fluoropyridin-4-yl)-N-((1r,4r)-4-(2-hydroxyacetamido)cyclohexyl)-4-(isopropylamino)pyrrolo[1,2-b]pyridazine-3-carboxamide], the half-inhibitory concentration (IC50) on IRAK4 was 6.5 nM; at JAK3 kinase, above 50 µM; in test [1], 4100 nM. Also, the “Ratio of JAK3 IC50 to IRAK4 IC50” value at JAK3 kinase is above 7692.

For the compound `CC(=O)N[C@H]1CC[C@H](NC(=O)c2cnn3cc(-c4cccnc4F)cc3c2NC(C)C)CC1` [Example 69, N-((1r,4r)-4-acetamidocyclohexyl)-6-(2-fluoropyridin-3-yl)-4-(isopropylamino)pyrrolo[1,2-b]pyridazine-3-carboxamide], the values for the IC50 (on IRAK4; on JAK3 kinase; in test [1]) were 9.2 nM, around 42 µM and 7010 nM, respectively. For the same compound, at JAK3 kinase, the “Ratio of JAK3 IC50 to IRAK4 IC50” value is around 4565.
